Data set [1] in a line: degradation during extrusion in the hot state. It counts as physicochemical. Conditions: extrusion in the hot state at temperatures of from 95° C. to 110° C. As to the method:
Moreover, and in surprising manner, it has been shown that the perindopril tert-butylamine salt, which is usually unstable to temperature or in association with certain acidic excipients, was not degraded, or only slightly degraded, during extrusion in the hot state carried out at temperatures of from 95° C. to 110° C. (less than 3% degradation).

Data set [2] is described as follows: stability study over 6 months. It counts as physicochemical. Particulars: variable temperature and relative humidity conditions, packaging of the aluminium/PVC blister type.

The structures appear in SMILES notation. Structures can show the parent of a compound that is named as a salt.

Consider `CCC[C@H](N[C@@H](C)C(=O)N1[C@H](C(=O)O)C[C@@H]2CCCC[C@@H]21)C(=O)OCC` [perindopril tert-butylamine salt, perindopril], for which, in data set [1], the degradation entry was “less than 3%”. Moreover, in data set [2], the stability entry is “excellent stability”.

Source of the values: patent publication US20040115227A1, “Thermoformable solid pharmaceutical composition for controlled release of perindopril” (priority 2000, published 2004).
